Experimental data as given in patent EP4772514A1, “MACROCYCLIC COMPOUNDS, PREPARATION METHOD THEREFOR, AND USE THEREOF” (Genfleet Therapeutics (Shanghai) Inc., priority 2023, dated 2025).

Tests used:
Assay type in all cases: cell-based
p-ERK [1] = experiment: Cell p-ERK assay (HTRF, Advance ERK phospho-T202/Y204 kit) in NCI-H441 cells; conditions: Homo sapiens, NCI-H441, 3 h, NCI-H441, human non-small cell lung cancer cell strain, KRAS G12V mutation; 3 h compound incubation
How it was run: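 AsPC-1 (KRAS G12D) or NCI-H441 (KRAS G12V) cells seeded overnight, then treated 3 h at 37 °C with compound (0.1% DMSO) in RPMI-1640/10% FBS. Lysates assayed for ERK phospho-T202/Y204 by HTRF; inhibition vs DMSO and blank wells, IC50 from four-parameter fit.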

p-ERK [2] = experiment: Cell p-ERK assay (HTRF, Advance ERK phospho-T202/Y204 kit) in AsPC-1 cells; conditions: ASPC1; AsPC-1, human pancreatic cancer cell strain, KRAS G12D mutation; 3 h compound incubation
Procedure: AsPC-1 cells were purchased from ATCC, Cat. No. CRL-1682; NCI-H441 cells were purchased from ATCC, Cat. No. HTB-174; RPMI-1640 medium was purchased from Gibco, Cat. No. 11875-093; FBS was purchased from Gibco, Cat. No. 10099-141C; penicillin/streptomycin double-antibiotic solution (PS) was purchased from Gibco, Cat. No. 15140-122; trypsin (containing EDTA) was purchased from Gibco, Cat. No. 25200-072; DMSO was purchased from VWRAMRESCO, Cat. No. 0231-500ML; 96-well cell culture plates were purchased from Corning, Cat. No. 3599; white-bottomed, opaque 96-well plates were purchased from Cisbio, Cat. No. 66PL96025; Advance ERK phospho-T202/Y204 kit was purchased from Cisbio, Cat. No. 64AERPEH; cell counter was purchased from CHEMOMETEC, model: NC-200; microplate reader was purchased from PerkinElmer, model: EnVision.
AsPC-1, a human pancreatic cancer cell strain endogenously containing a KRAS^G12D mutation, was cultured in a complete medium containing RPMI-1640 + 10% FBS + 1% PS. NCI-H441, a human non-small cell lung cancer cell strain endogenously containing a KRAS^G12V mutation, was cultured in a complete medium containing RPMI-1640 + 10% FBS + 1% PS.
The cells were digested with trypsin (containing EDTA), collected in their corresponding complete media, and counted. The density of the cell suspensions was adjusted with their corresponding complete media, and AsPC-1 cells (10000 cells/well) or NCI-H441 cells (20000 cells/well) were seeded into a 96-well cell culture plate, with the volume of the medium in each well being 80 µL. The cell culture plate was incubated in an incubator at 37 °C with 5% CO2 overnight. A series of 3.16-fold gradient dilutions of a 1000× compound stock solution were prepared with DMSO, and then diluted 200-fold with the complete medium described above to give 5× compound stock solutions. On the day after cell seeding, 20 µL of the 5× compound stock solution was added to each cell culture well. As a result, the final concentration of the compound in the cell culture well became 1×, and the DMSO content in the well was 0.1%. In addition to the compound-treated wells described above, cell-containing DMSO control wells were also set. A complete medium containing 0.5% DMSO was added at 20 µL/well. After the mixture was well mixed, the culture plate was incubated in the incubator at 37 °C with 5% CO2 for another 3 h. The medium was then removed from the culture wells, and 50 µL of cell lysis buffer (from Advance ERK phospho-T202/Y204 kit) was added to each well. The mixture was well mixed, incubated for 30 min, and then transferred to a white-bottomed, opaque 96-well assay plate at 16 µL/well, and separately, 16 µL of cell lysis buffer was added to additional wells (serving as blank wells) in the assay plate. After the transfer was completed, 4 µL of p-ERK HTRF antibody mixture (from Advance ERK phospho-T202/Y204 kit) was added to each well of the assay plate, followed by a 4-hour incubation. The HTRF signal values (RLU) were then measured using a microplate reader, and the inhibition rate of the compound against p-ERK levels was calculated as follows: IR(%) = (RLUDMSO - RLUcompound)/(RLUDMSO - RLUblank) × 100%, where RLUDMSO is the average HTRF signal value from the DMSO control well samples, RLU is the average HTRF signal value from the blank well samples, and RLUcompound is the HTRF signal value from the compound-treated well samples. Using an XLfit software, the IR(%) values were plotted against the logarithm of the compound concentrations, and the dose-response curves were fitted using the four-parameter method to calculate the IC50 values.

NCI-H441 cells = experiment: 3D cell proliferation assay (CellTiter Glo-3D) in NCI-H441 cells; conditions: Homo sapiens, NCI-H441, 120 h, NCI-H441, human lung cancer cell strain, KRAS G12V mutation; 3D culture, 2% FBS, 5 days; read-out: H441 AP IC50
Source text: MIA PaCa-2 cells were purchased from ATCC, Cat. No. CRL-1420; AsPC-1 cells were purchased from ATCC, Cat. No. CRL-1682; NCI-H441 cells were purchased from ATCC, Cat. No. HTB-174; NCI-H1975 cells were purchased from ATCC, Cat. No. CRL-5908; DMEM medium was purchased from Gibco, Cat. No. 11995-065; RPMI-1640 medium was purchased from Gibco, Cat. No. 11875-093; FBS was purchased from Gibco, Cat. No. 10099-141C; penicillin/streptomycin double-antibiotic solution (PS) was purchased from Gibco, Cat. No. 15140-122; Horse serum was purchased from Gibco, Cat. No. 16050130; trypsin (containing EDTA) was purchased from Gibco, Cat. No. 25200-072; DMSO was purchased from VWRAMRESCO, Cat. No. 0231-500ML; 384-well cell culture plates were purchased from Corning, Cat. No. 3830; white-bottomed, opaque 384-well assay plates were purchased from Corning, Cat. No. 3570; CellTiter Glo-3D kit was purchased from Promega, Cat. No. G9683; cell counter was purchased from CHEMOMETEC, model: NC-200; microplate reader was purchased from PerkinElmer, model: EnVision.
MIA PaCa-2, a human pancreatic cancer cell strain endogenously containing a KRAS^G12Cmutation, was cultured in a complete medium containing DMEM + 10% FBS + 2.5% Horse serum + 1% PS. AsPC-1, a human pancreatic cancer cell strain endogenously containing a KRAS^G12D mutation, was cultured in a complete medium containing RPMI-1640 + 10% FBS + 1% PS. NCI-H441 cells, a human lung cancer cell strain endogenously containing a KRAS^G12V mutation, were cultured in a complete medium containing RPMI-1640 + 10% FBS + 1% PS. NCI-H1975, a KRAS wild-type human lung cancer cell strain whose cell proliferation […], was cultured in a complete medium containing RPMI-1640 + 10% FBS + 1% PS.
The cells were digested with trypsin (containing EDTA), collected in their respective low-serum complete media containing 2% FBS (for MIA Paca-2 cell culture: DMEM + 2% FBS + 0.5% Horse serum + 1% PS), and counted. After the cell density was adjusted as required, MIA PaCa-2 cells (200 cells/well), AsPC-1 cells (800 cells/well), NCI-H441 cells (800 cells/well), or NCI-H1975 cells (400 cells/well) were seeded into a 384-well cell culture plate, with the volume of the medium in each well being 45 µL. The cell culture plate was incubated in an incubator at 37 °C with 5% CO2 overnight. A series of 3.16-fold gradient dilutions of a 1000× compound stock solution were prepared with DMSO, and then diluted 100-fold with the complete medium containing 2% FBS described above to give 10× compound stock solutions. On the day after cell seeding, 5 µL of the 10× compound stock solution was added to each cell culture well. As a result, the final concentration of the compound in the cell culture well became 1×, and the DMSO content in the well was 0.1%. In addition to the compound-treated wells described above, cell-containing DMSO control wells (with 5 µL of the complete medium containing 1% DMSO added to each well) and cell-free medium control wells (containing 50 µL of the complete medium with 2% FBS) were also set. The culture plate was incubated in an incubator at 37 °C with 5% CO2 for another 5 days, and then 30 µL of CellTiter-Glo working solution was added to each well. The mixture was well mixed, incubated for 30 min, left to stand at room temperature for 30 min, and then transferred to a white-bottomed, opaque 384-well assay plate at 40 µL/well. The chemiluminescence values (RLU) were measured using a microplate reader, and the cell proliferation inhibition rate for each well was calculated: IR(%) = (RLUDMSO - RLUcompound)/(RLUDMSO - RLUblank) × 100%, where RLUDMSO is the average RLU signal value from the DMSO control well samples, RLUblank is the average RLU signal value from the medium control well samples, and RLUcompound is the RLU signal value from the compound-treated well samples. […]

CCn1nc2c(c1-c1cc(N3CCN(C)CC3)cnc1[C@H](C)OC)CC(C)(C)COC(=O)[C@@H]1CCCN(N1)C(=O)[C@@H](NC(=O)[C@H]1[C@H](C)[C@@H]1C)Cc1nc(cs1)/C=C/2 (single isomer, unassigned) [Compound Z4-1]
IC50 (p-ERK [1]): 71.8 nM | IC50 (p-ERK [2]): 191 nM

CO[C@@H](C)c1ncc(C#CCN2CCS(=O)(=O)CC2)cc1-c1c2c(nn1C(C)C)/C=C/c1csc(n1)C[C@H](NC(=O)CC1CC(CO)C1)C(=O)N1CCC[C@H](N1)C(=O)OCC(C)(C)C2 (stereo partly drawn) [Compound Z39, N-((4^2Z,8^3S,2E,6S)-1^5-(5-(3-(1,1-dioxidothiomorpholino)prop-1-yn-1-yl)-2-((S)-1-methoxyethyl)pyridin-3-yl)-1^1-isopropyl-12,12-dimethyl-7,9-dioxo-8^1,8^2,8^3,8^4,8^5,8^6-hexahydro-1^1H-10-oxa-4(4,2)-thiazola-8(1,3)-pyridazina-1(3,4)-pyrrolacyclotridecaphan-2-en-6-yl)-2-(3-(hydroxymethyl)cyclobutyl)acetamide]
IC50 (p-ERK [1]): 177 nM | IC50 (p-ERK [2]): 506 nM

CCn1cc2c(c1-c1cc(C#CCN3CCC(C#N)(CN)CC3)cnc1[C@H](C)OC)CC(C)(C)COC(=O)[C@@H]1CCCN(N1)C(=O)[C@@H](NC(=O)[C@H]1[C@H](C)[C@@H]1C)Cc1nc(co1)/C=C/2 (atropisomer, axis not shown; (Ra)) [Compound Z234, (1r,2R,3S)-N-((4^2Z,8^3 S,2E,6S)-(Ra)-1^5-(5-(3-(4-(aminomethyl)-4-cyanopiperidin-1-yl)prop-1-yn-1-yl)-2-((S)-1-methoxyethyl)pyridin-3-yl)-1^1-ethyl-12,12-dimethyl-7,9-dioxo-8^1,8^2,8^3,8^4,8^5,8^6-hexahydro-1^1H-10-oxa-4(4,2)-oxazola-8(1,3)-pyridazina-1(3,4)-pyrrolacyclotridecaphan-2-en-6-yl)-2,3-dimethylcyclopropane-1-carboxamide]
IC50 (p-ERK [1]): 0.36 nM | IC50 (p-ERK [2]): 0.07 nM

CCn1nc2c(c1-c1cc(N3CCN(C)CC3)cnc1[C@H](C)OC)CC(C)(C)COC(=O)[C@@H]1CCCN(N1)C(=O)[C@@H](NC(=O)[C@H]1[C@H](C)[C@@H]1C)Cc1nc(cs1)/C=C/2 (atropisomer, axis not shown) [Compound Z4]
IC50 (p-ERK [1]): 157 nM | IC50 (p-ERK [2]): 367 nM

CCn1cc2c(c1-c1cc(C#CCN3CCC(C#N)CC3)cnc1[C@H](C)OC)CC(C)(C)COC(=O)[C@@H]1CCCN(N1)C(=O)[C@@H](NC(=O)[C@H]1[C@@H]3COC[C@@H]31)Cc1nc(co1)/C=C/2 (atropisomer, axis not shown; (Ra)) [Compound Z85, (1R,5S,6r)-N-((4^2Z,8^3S,2E,6S)-(Ra)-1^5-(5-(3-(4-cyanopiperidin-1-yl)prop-1-yn-1-yl)-2-((S)-1-methoxyethyl)pyridin-3-yl)-1^1-ethyl-12,12-dimethyl-7,9-dioxo-8^1,8^2,8^3,8^4,8^5,8^6-hexahydro-1^1H-10-oxa-4(4,2)-oxazola-8(1,3)-pyridazina-1(3,4)-pyrrolacyclotridecaphan-2-en-6-yl)-3-oxabicyclo[3.1.0]hexane-6-carboxamide]
IC50 (p-ERK [1]): 0.2 nM | IC50 (p-ERK [2]): 0.04 nM

CCn1nc2c(c1-c1cc(C#CCN3CCS(=O)(=O)CC3)cnc1[C@H](C)OC)CC(C)(C)COC(=O)[C@@H]1CCCN(N1)C(=O)[C@@H](NC(=O)[C@@H](OCc1ccccc1)C(C)C)Cc1nc(cs1)/C=C/2 (atropisomer, axis not shown; (Ra)) [Compound Z46, (2S)-2-(benzyloxy)-N-((4^2Z,8^3S,2E,6S)-1^5-(Ra)-(5-(3-(1,1-dioxidothiomorpholino)prop-1-yn-1-yl)-2-((S)-1-methoxyethyl)pyridin-3-yl)-1^1-ethyl-12,12-dimethyl-7,9-dioxo-8^1,8^2,8^3,8^4,8^5,8^6-hexahydro-1^1H-10-oxa-4(4,2)-thiazola-8(1,3)-pyridazina-1(3,4)-pyrrolacyclotridecaphan-2-en-6-yl)-3-methylbutanamide]
IC50 (p-ERK [1]): 168 nM | IC50 (NCI-H441 cells): 176 nM
